Assay results taken from US20230201245A1, “COMPOSITIONS AND METHODS FOR TREATING VIRUS INFECTION” (CZ BIOHUB SF, LLC, priority 2020, published 2023).
“Also recorded” adds a separate entry of the source. Where two headings read alike, the source gives them in different places.

Tests used:
[1] = test system: DENV; assay type: cell-based, DENV-2 strain 16681
[2] = test system: ZIKV; assay type: cell-based, ZIKV PRVABC59
[3] = test system: ZIKV; experiment: Quantification of (+)vRNA and viral particles by qPCR and plaque assays, ZIKV-infected cells; assay type: cell-based; settings: added at 24 h, analyzed at 36 hpi
[4] = test system: ebola, chikungunya, influenza and ZIKV; settings: cited from earlier work
[5] = test system: ZIKV replication complexes; experiment: In vitro replication assay with crude replication complexes and clickable uridine analog (5EU); assay type: biochemical; settings: crude replication complexes from ZIKV-infected cells
[6] = test system: ZIKV RNA translation initiation; experiment: Sucrose gradient polysome fractionation with qPCR of GAPDH mRNA and ZIKV plus-strand RNA; assay type: cell-based; settings: then 30 nM RocA for 30 min
[7] = test system: ZIKV NS5 and E; assay type: cell-based; settings: added at 24 h, analyzed at 36 hpi; compared to CHX or Puro
[8] = test system: PV; assay type: cell-based, PV-1 Mahoney

Row | SMILES | virus production (DENV) [1] | virus production (ZIKV) [2] | accumulation of viral RNA or particles [3] | ZIKV replication in vitro (5EU labelling of newly synthesized RNA) [5] | further results
1 | CCOC(=O)c1ccc(-c2ncc(C(=O)OCC)s2)nc1 [PythiDC, Diethyl-pythiDC] | inhibit virus replication | inhibit virus replication |  |  | 
2 | C[C@@H]1C[C@@H]([C@H](O)CC2CC(=O)NC(=O)C2)C(=O)[C@@H](C)C1 [CHX, cycloheximide] |  |  | reduced viral replication |  | 
3 | CC(/C=C/C(C)=C/[C@@H]1Cc2nc(cs2)[C@@H](C)C[C@@H](N)CC(=O)O[C@@H](C)C/C(C)=C/C=C\C(=O)O1)=C\CN(C)C [pateamine A] |  |  |  |  | antiviral activity [4]: antiviral activity
4 | C[C@@]1(O)[C@H](O)[C@@H](CO)O[C@H]1n1cnc2c(N)ncnc21 [2′CMA] |  |  |  | reduced | 
5 | COC(=O)[C@H]1[C@@H](O)[C@@]2(O)c3c(OC)cc(O[C@@H]4O[C@@H]([C@H](O)CO)CO[C@H]4OC)cc3O[C@@]2(c2ccc(OC)cc2)[C@@H]1c1ccccc1 [silvestrol] |  |  |  |  | antiviral activity ([4]; against ebola, chikungunya, influenza and ZIKV, literature references): antiviral activity
6 | COc1ccc([C@@]23Oc4cc(OC)cc(OC)c4[C@]2(O)[C@H](O)[C@H](C(=O)N(C)C)[C@H]3c2ccccc2)cc1 [RocA, Rocaglamide A] | strongly reduced; also recorded: blocks viral replication; also recorded: drastic dose-dependent decrease | strongly reduced; also recorded: blocks viral replication; also recorded: drastic dose-dependent decrease | reduced viral replication | reduced | distribution of ZIKV plus-strand RNA in gradient fractions ([6]; ZIKV-infected cells 24 h): shift of ZIKV RNA to lighter fractions; distribution of GAPDH mRNA in gradient fractions ([6]; mock or ZIKV-infected cells 24 h): did not affect; accumulation of NS5 or E [7]: mild inhibitory effect; virus production (PV) [8]: only minor effects; also recorded: not PV
